Literature values, collected in PMC4061760 (Tetrahedron, 2009).

Tested on: Plk1 PBD
Conditions: 5-mer phosphopeptide

PLHSpT [Peptide 22]
interaction with the Plk1 PBD: specifically interacts with the Plk1 PBD with high affinity
